Results taken from ChEMBL document CHEMBL1136367, “Design and synthesis of novel benzofurans as a new class of antifungal agents targeting fungal N-myristoyltransferase. Part 3” (Bioorg Med Chem Lett, 2003).
pIC50: −log10 of the molar value.

What was measured:
[1] = Pharmacokinetic property when administered intravenously in rat at 2 mg/kg; assay type: ADME, organism-based; set-up: dose 2 mg/kg, route intravenous; settings: in vivo, iv
[2] = Half life period was evaluated in rat plasma; assay type: ADME, organism-based
Candida albicans [3] = assay: In vitro antifungal activity against Candida albicans (CY1002) in 80% calf serum; assay type: functional, organism-based
Candida albicans [4] = assay: In vitro antifungal activity against Candida albicans (CY1002) in YNBPB medium; assay type: functional, organism-based
[5] = molecular target: T1, Peptide N-myristoyltransferase (Homo sapiens, UniProt P30419+O60551); assay: In vitro inhibitory activity against human Nmt (HsNmt) using 0.5 uM peptide GNAASAR-R-NH2 and 0.5 uM myristoyl-CoA; assay type: protein assay
T1 sequence (P30419 whole entry): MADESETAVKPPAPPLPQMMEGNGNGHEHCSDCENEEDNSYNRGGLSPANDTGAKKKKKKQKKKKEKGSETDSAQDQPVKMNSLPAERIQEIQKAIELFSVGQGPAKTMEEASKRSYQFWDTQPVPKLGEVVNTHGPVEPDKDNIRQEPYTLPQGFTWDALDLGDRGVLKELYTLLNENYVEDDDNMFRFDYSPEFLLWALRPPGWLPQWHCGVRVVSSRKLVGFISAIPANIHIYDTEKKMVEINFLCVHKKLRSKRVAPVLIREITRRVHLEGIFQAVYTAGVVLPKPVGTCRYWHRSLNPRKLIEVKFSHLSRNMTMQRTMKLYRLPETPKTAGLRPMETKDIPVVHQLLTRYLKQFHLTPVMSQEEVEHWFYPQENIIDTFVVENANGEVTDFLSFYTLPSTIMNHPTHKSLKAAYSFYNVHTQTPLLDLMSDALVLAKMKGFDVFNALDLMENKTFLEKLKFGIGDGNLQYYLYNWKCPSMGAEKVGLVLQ
T1 sequence (O60551 whole entry): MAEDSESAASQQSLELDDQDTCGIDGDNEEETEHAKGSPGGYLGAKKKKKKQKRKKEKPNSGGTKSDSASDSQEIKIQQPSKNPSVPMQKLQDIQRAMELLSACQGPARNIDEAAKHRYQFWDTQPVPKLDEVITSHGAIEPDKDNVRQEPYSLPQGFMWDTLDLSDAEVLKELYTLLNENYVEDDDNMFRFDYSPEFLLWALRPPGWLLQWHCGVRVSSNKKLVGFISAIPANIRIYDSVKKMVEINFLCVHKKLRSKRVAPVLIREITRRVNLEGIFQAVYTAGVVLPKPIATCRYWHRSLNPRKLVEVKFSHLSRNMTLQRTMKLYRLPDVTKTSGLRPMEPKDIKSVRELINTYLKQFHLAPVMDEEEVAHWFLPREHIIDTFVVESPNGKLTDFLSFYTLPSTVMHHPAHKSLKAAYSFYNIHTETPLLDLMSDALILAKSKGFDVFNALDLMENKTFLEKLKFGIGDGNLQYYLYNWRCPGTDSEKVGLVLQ

[6] = molecular target: Peptide N-myristoyltransferase (Candida albicans); assay: In vitro inhibitory activity against Candida albicans Nmt (CaNmt) using substrate peptide GLTISKLFR-R-NH2 (0.5 uM) and myristoyl-CoA (0.5 uM)
[7] = molecular target: Peptide N-myristoyltransferase (Aspergillus fumigatus); assay: In vitro inhibitory activity against Aspergillus fumigatus Nmt (AfNmt) using substrate peptide GLTISKLFR-R-NH2 (0.5 uM) and myristoyl-CoA (0.5 uM)
[8] = molecular target: Peptide N-myristoyltransferase (Candida albicans); assay: Inhibitory activity against Candida albicans Nmt (CaNmt) using substrate peptide GLTISKLFR-R-NH2 (0.5 uM) and myristoyl-CoA (0.5 uM)
Mus musculus = assay: In vivo efficacy expressed as effective dose against murine systematic candidiasis model; assay type: functional
Candida albicans [9] = assay: In vitro antifungal activity against Candida albicans (CY1002) in YNBPB medium in rat; assay type: functional, organism-based
Rattus norvegicus [10] = species: Rattus norvegicus; assay: Antifungal activity determined in rat infected with Candida albicans CY1002.; assay type: functional
[11] = molecular target: Peptide N-myristoyltransferase (Candida albicans); assay: In vitro inhibitory activity against candida albicans Nmt (CaNmt) using substrate peptide GLTISKLFR-R-NH2 (0.5 uM) and myristoyl-CoA (0.5 uM)
[12] = molecular target: Peptide N-myristoyltransferase (Aspergillus fumigatus); assay: In vitro inhibitory activity against aspergillus fumigatus Nmt (AfNmt) using substrate peptide GLTISKLFR-R-NH2 (0.5 uM) and myristoyl-CoA (0.5 uM)
[13] = molecular target: Peptide N-myristoyltransferase (Candida albicans); assay: In vitro inhibitory activity against Candida albicans Nmt (CaNmt) using substrate peptide GLTISKLFR-R-NH2 (0.5 uM) and myristoyl-CoA (0.5 uM); remark: listed apart in the source
Rattus norvegicus [14] = species: Rattus norvegicus; assay: Antifungal activity determined in rat infected with Candida albicans CY1002; assay type: functional

Row | Compound | AUC [1] [ng·h/mL] | half-life [2] [min] | pIC50 (Candida albicans [3]) | pIC50 (Candida albicans [4]) | IC50 [5] [nM] | IC50 [6] [nM] | IC50 [7] [nM] | other results
1 | Cc1c(C(=O)c2ncccc2C(F)(F)F)oc2cccc(OCCCNCc3cccnc3)c12 | 590 | 33.6 | 5.29 | 6.47 | > 430000 | 43 | 11000 | –
2 | Cc1nc(C(=O)c2oc3cccc(OCCCNCc4cccnc4)c3c2C)sc1C | 320 | 39 | 6.72 | 7.41 | 83000 | 0.71 | 4300 | –
3 | OC(Cn1cncn1)(Cn1cncn1)c1ccc(F)cc1F [FLUCONAZOLE] | 19600 | 240 | – | – | – | – | – | –
4 | Cc1c(C(O)c2ccccn2)oc2cccc(OCCCNCc3cccnc3)c12 (stereo not given) | – | – | – | – | – | – | – | IC50 [8]: 47 nM
5 | Cc1c(COc2ccc(F)c(F)c2F)oc2cccc(OCCCNCc3cccnc3)c12 | – | 120 | – | – | – | – | – | ED50 (Mus musculus): 7.1 mg/kg
6 | Cc1c(C(=O)c2nccs2)oc2cccc(OCCCNCc3cccnc3)c12 | – | – | 5.08 | 6.27 | 25000 | 91 | 63000 | –
7 | Cc1c(C(=O)c2nc3ccccc3n2C(C)C)oc2cccc(OCCCNCc3cccnc3)c12 | 810 | 51.6 | 5.57 | 7.72 | 99000 | 1.3 | 480 | –
8 | Cc1c(C(=O)c2cccnc2)oc2cccc(OCCCNCc3cccnc3)c12 | – | – | – | – | – | – | – | IC50 [8]: 62 nM
9 | Cc1ccc(C(=O)c2oc3cccc(OCCCNCc4cccnc4)c3c2C)nc1 | 440 | 34.8 | 7.09 | – | > 480000 | – | – | pIC50 (Candida albicans [9]): 7.44; ED50 (Rattus norvegicus [10]): 15 mg/kg; IC50 [11]: 0.39 nM; IC50 [12]: 4100 nM
10 | Cc1c(C(=O)c2nc3ccccc3n2C)oc2cccc(OCCCNCc3cccnc3)c12 | 450 | 35.4 | 5.92 | 7.46 | 94000 | 0.4 | 13000 | –
11 | Cc1c(C(=O)c2ccco2)oc2cccc(OCCCNCc3cccnc3)c12 | – | – | 4.60 | 5.34 | 280000 | 1400 | 150000 | –
12 | Cc1c(C(=O)c2nccn2C)oc2cccc(OCCCNCc3cccnc3)c12 | 530 | 27 | 5.52 | 6.92 | – | – | – | –
13 | Cc1csc(C(=O)c2oc3cccc(OCCCNCc4cccnc4)c3c2C)n1 | 470 | 20.4 | 6.13 | 6.85 | 130000 | 2 | 18000 | –
14 | Cc1c(C(=O)c2ccccn2)oc2cccc(OCCCNCc3cccnc3)c12 | 410 | 32.4 | 6.33 | 7.19 | 340000 | – | 42000 | IC50 [13]: 3.5 nM
15 | Cc1c(C(=O)c2ccccc2)oc2cccc(OCCCNCc3cccnc3)c12 | – | – | – | – | – | – | – | IC50 [8]: 1200 nM
16 | Cc1c(Cc2ccccn2)oc2cccc(OCCCNCc3cccnc3)c12 | – | – | – | – | – | – | – | IC50 [8]: 1900 nM
17 | C=CCn1c(C(=O)c2oc3cccc(OCCCNCc4cccnc4)c3c2C)nc2ccccc21 | 570 | 48 | 6.38 | 7.32 | 85000 | 0.58 | 5100 | ED50 (Rattus norvegicus [14]): 8.7 mg/kg
